From PubChem BioAssay (NCI)
Several values for one entry are separate records, joined by “and”; a condition that tells them apart may be missing. Equal values may be shown once.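 Grown in 96-well plates, cells were treated for 48 hours with each compound at five concentrations. Insufficient inhibition: endpoint recorded as highest concentration tested. TGI is the concentration that stops growth completely.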

What follows are compounds tested on ACHN renal (assay: NCI anticancer screen, dose series, 48 h).
`O=C(NNC(=O)c1ccccc1SSc1ccccc1C(=O)NNC(=O)c1ccccc1S)c1ccccc1S` was tested, and the TGI was greater than 100 µM.
`CCOC(=O)C(NC(C)=O)(Nc1ccc(F)cc1)C(F)(F)F` (stereo not given) was tested, and the TGI was greater than 100 µM.
For `CCOc1cc2c(cc1O)/C(=N\OC)C[C@@H]1[C@@H]2CC[C@]2(C)[C@@H](O)CC[C@@H]12`, the TGI was greater than 100 µM.
`O=C1/C(=C/c2ccc(O)cc2)CC/C1=C\c1ccc(O)cc1` was tested, and the TGI was greater than 100 µM.
`CC(C)C1/C(=N/O)CC(c2ccccc2)N(N=O)C1c1ccccc1` (stereo not given) was tested, and the TGI was greater than 100 µM.
`CC1(C)N=C(/C(Cl)=[N+](/[O-])C(=O)c2ccc(F)cc2)C(C)(C)N1O` showed a TGI of 36.5 µM.
Compound `COc1cc(/C=C2\S/C(=N/Nc3nc(-c4ccc(Br)cc4)cs3)NC2=O)cc(OC)c1OC` has a TGI of 25.4 µM.
Work on `COC(=O)[C@H]1CO[C@@H](C(C)(C)C)N1C(=O)N1C=CC(=O)C[C@@H]1C` yielded a TGI greater than 100 µM.
Compound `CCCNC1=C2CC(C)CC(OC)[C@@H](O)[C@H](C)/C=C(\C)C(OC(N)=O)C(OC)/C=C\C=C(/C)C(=O)NC(=CC1=O)C2=O` (stereo not given in full) has a TGI of 91.4 µM.
Compound `C[n+]1c2ccccc2c(/C=N\NS(=O)(=O)c2ccc(O)c(C(=O)O)c2)c2ccccc21` has a TGI greater than 100 µM.
`Clc1ccc(/C=C/c2nc3ccccc3s2)cc1Cl` was tested, and the TGI was greater than 100 µM.
Work on `CCC1(O)CC2CC(=O)OC2C1O` (stereo not given) yielded a TGI greater than 100 µM.
`Cc1ccc(SCC(CSCCO)OCn2cnc3c2NC(N)=NC32OCCO2)cc1` (stereo not given) showed a TGI greater than 100 µM.
With `C(/c1ccco1)=c1/nc(-c2ccccc2)n2c1nc1ccccc12` the TGI was greater than 100 µM.
`NC(=O)C(c1ccccc1)N1OC2C(=O)N(c3ccccc3)C(=O)C2C1c1c2ccccc2c(Cl)c2ccccc12` (stereo not given) was tested, and the TGI was greater than 100 µM.
For `CC[C@@]1(C[C@H]2C[C@@]3(C(=O)OC)c4[nH]c5ccccc5c4CCN3C2=O)COC2(CCCCC2)O1`, the TGI was greater than 100 µM.
`O=S1(=O)NC(=NCc2c[nH]c3ccccc23)N(c2ccccc2)c2ccncc21` gave a TGI greater than 100 µM.
`COc1ccc(CNc2nc(NCc3ccc(OC)c(OC)c3)nc(NC3CCCCC3)n2)cc1` was tested, and the TGI was greater than 100 µM.
`C[C@@]12C[C@@H](c3ccccc3O1)N1CCCCSC1=N2` showed a TGI greater than 100 µM.
With `CCOC(=O)Nn1c(C)nnc1-c1ccccc1` the TGI was greater than 100 µM.
`Cc1cn(C2CC(n3cc(Cn4cc(I)c(=O)[nH]c4=O)nn3)C(CO)O2)c(=O)[nH]c1=O` (stereo not given) gave a TGI greater than 100 µM.
With `O=C1CCC(=O)N1n1c(Cc2ccccc2)n[nH]c1=O` the TGI was greater than 100 µM.
`Oc1cc2c3c(c1)c1cc4c(cc1c[n+]3CC2)OCO4` gave a TGI greater than 100 µM.
For `Cc1cn(C2CC(N(O)C(N)=O)C(CO)O2)c(=O)[nH]c1=O` (stereo not given), the TGI was greater than 100 µM.
For `CC(=O)NC1=C(NCCC(C)C)C(=O)c2ccccc2C1=O`, the TGI was greater than 50 µM.
For `O=C(O)c1cccc2c1/C(=N/Nc1ccccc1)CC2`, the TGI was greater than 100 µM.
In the case of `O=C(Cc1cccs1)N[C@@H]1C(=O)N2C(C(=O)OC(c3ccccc3)c3ccccc3)=C(CO)CS[C@H]12`, the TGI is reported as greater than 100 µM.
With `CC1=C(C)[C@@]2(C)O[C@@]2(C)O[C@@]2(C)O[C@@]12C` the TGI was greater than 100 µM.

What follows are compounds tested on HL-60(TB) leukemia (assay: NCI anticancer screen, dose series, 48 h).
In the case of `O=c1[nH][nH]c(=O)n1Cc1ccccc1Cn1c(=O)[nH][nH]c1=O`, the TGI is reported as greater than 100 µM.
`CC1C=C(CCCCCCCCCCCC[C@@H](O)[C@@H]2CC[C@@H]([C@@H]3CC[C@@H](C(O)CCCCCCCCCCCCC4=C[C@H](C)OC4=O)O3)O2)C(=O)O1` (stereo not given in full) gave a TGI greater than 100 µM.
Work on `CCNC(=S)N/N=C/c1cc([N+](=O)[O-])ccc1O` yielded a TGI of 40.8 µM.
`COc1cc([C@@H]2OCC3C(c4ccc5c(c4)OCO5)OCC32)cc(OC)c1OC` (stereo not given in full) gave a TGI greater than 100 µM.
`CCOC(=O)c1c2ccccc2n2c(N)c(C(N)=O)nnc12` gave a TGI greater than 100 µM.
`Cc1cc(N(CCC#N)CCC#N)ccc1/C(N=Nc1ccc(Cl)cc1)=N\NC(=O)c1ccccc1` was tested, and the TGI was greater than 100 µM.
In the case of `CC[C@@]1(O)C(=O)OCc2c1cc1n(c2=O)Cc2c-1nc1ccccc1c2/C=N\NC(=O)CN`, the TGI is reported as greater than 100 µM.
`N#CN=C(N(Cc1ccccc1)Cc1ccccc1)N(Cc1ccccc1)Cc1ccccc1` showed a TGI of 83.8 µM.
`CNC(=O)C(C)C1CCC2(C)C=CC(=O)C(C)=C2C1O` (stereo not given) was tested, and the TGI was greater than 100 µM.
With `O=C(NNC(=O)c1ccccc1SSc1ccccc1C(=O)NNC(=O)c1ccccc1S)c1ccccc1S` the TGI was 9.49 µM.
With `CCOC(=O)C(NC(C)=O)(Nc1ccc(F)cc1)C(F)(F)F` (stereo not given) the TGI was greater than 100 µM.
`O=C1/C(=C/c2ccc(O)cc2)CC/C1=C\c1ccc(O)cc1` showed a TGI of 34.5 µM.
`CC(C)C1/C(=N/O)CC(c2ccccc2)N(N=O)C1c1ccccc1` (stereo not given) was tested, and the TGI was 86.7 µM.
For `CC1(C)N=C(/C(Cl)=[N+](/[O-])C(=O)c2ccc(F)cc2)C(C)(C)N1O`, the TGI was 27.3 µM.
With `COC(=O)[C@H](Cc1c[nH]c2ccccc12)NP(=O)(O)OCC1C=CC(n2cc(C)c(=O)[nH]c2=O)O1` (stereo not given in full) the TGI was greater than 100 µM.
In the case of `COC(=O)[C@H]1CO[C@@H](C(C)(C)C)N1C(=O)N1C=CC(=O)C[C@@H]1C`, the TGI is reported as greater than 100 µM.
In the case of `CCCNC1=C2CC(C)CC(OC)[C@@H](O)[C@H](C)/C=C(\C)C(OC(N)=O)C(OC)/C=C\C=C(/C)C(=O)NC(=CC1=O)C2=O` (stereo not given in full), the TGI is reported as 2.34 µM and 0.547 µM.
In the case of `C[n+]1c2ccccc2c(/C=N\NS(=O)(=O)c2ccc(O)c(C(=O)O)c2)c2ccccc21`, the TGI is reported as 84.2 µM.
`O=C(Nc1ccc(C2=NCCN2)cc1)c1cncc(C(=O)Nc2ccc(C3=NCCN3)cc2)c1` was tested, and the TGI was greater than 100 µM.
Compound `Clc1ccc(/C=C/c2nc3ccccc3s2)cc1Cl` has a TGI greater than 100 µM.
`Cc1ccc(SCC(CSCCO)OCn2cnc3c2NC(N)=NC32OCCO2)cc1` (stereo not given) showed a TGI greater than 100 µM.
With `C(/c1ccco1)=c1/nc(-c2ccccc2)n2c1nc1ccccc12` the TGI was greater than 100 µM.
